# Measured values from patent US10246465B2 (priority 2014, dated 2019).
# pKi: −log10 of the molar value.
# Molecular target: human σ1 receptor (Homo sapiens, UniProt Q99720)
# Assay: biochemical
# Type: binding
# Parameters: μ and σ1 dual binding: key to the marks not given beside the values
# Details: one combined class from Ki at human σ1 receptor (A1) and Ki at human μ-opioid receptor (A2)
# Description: Human σ1 Receptor Radioligand Assay
# The assay was carried out with 7 μg of membrane suspension, 5 nM of [^3H](+)-pentazocine in either absence or presence of either buffer or 10 μM Haloperidol for total and non-specific binding, respectively. Binding buffer contained Tris-HCl 50 mM at pH 8. Plates were incubated at 37° C. for 120 minutes. After the incubation period, the reaction mix was then transferred to MultiScreen HTS, FC plates (Millipore), filtered and plates were washed 3 times with ice-cold 10 mM Tris-HCL (pH7.4). Filters were dried and counted at approximately 40% efficiency in a MicroBeta scintillation counter (Perkin-Elmer) using EcoScint liquid scintillation cocktail
# Chain of human σ1 receptor (Q99720 whole entry): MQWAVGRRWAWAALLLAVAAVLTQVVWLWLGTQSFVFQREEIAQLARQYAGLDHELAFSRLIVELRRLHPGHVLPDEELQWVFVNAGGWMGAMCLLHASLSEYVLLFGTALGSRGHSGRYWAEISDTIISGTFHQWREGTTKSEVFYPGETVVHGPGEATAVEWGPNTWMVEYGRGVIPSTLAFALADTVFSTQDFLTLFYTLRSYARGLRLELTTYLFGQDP
row,Structure (SMILES),μ and σ1 dual binding
1,"CCN1CC2(CCN(CCc3ncccc3F)CC2)OC2(CC2)C1=O.Cl [Example 3, 12-ethyl-8-[2-(3-fluoropyridin-2-yl)ethyl]-4-oxa-8,12-diazadispiro[2.1.5.3]tridecan-13-one hydrochloride]",++
2,"CCN1CC2(CCN(CCc3cc(C(F)(F)F)ccn3)CC2)OC2(CC2)C1=O.Cl [Example 4, 12-ethyl-8-{2-[4-(trifluoromethyl)pyridin-2-yl]ethyl}-4-oxa-8,12-diazadispiro[2.1.5.3]tridecan-13-one hydrochloride]",++
3,"CCN1CC2(CCN(CCc3ncccc3Cl)CC2)OC2(CC2)C1=O.Cl [Example 5, 8-[2-(3-chloropyridin-2-yl)ethyl]-12-ethyl-4-oxa-8,12-diazadispiro[2.1.5.3]tridecan-13-one hydrochloride]",++
4,"CCN1CC2(CCN(CCc3cccc(N)n3)CC2)OC2(CC2)C1=O [Example 6, 8-[2-(6-aminopyridin-2-yl)ethyl]-12-ethyl-4-oxa-8,12-diazadispiro[2.1.5.3]tridecan-13-one]",++
5,"CCN1CC2(CCN(CCc3ccncc3)CC2)OC2(CC2)C1=O [Example 23, 12-ethyl-8-[2-(pyridin-4-yl)ethyl]-4-oxa-8,12-diazadispiro[2.1.5.3]tridecan-13-one]",++
6,"CCN1CC2(CCN(CCc3cccc(C#N)c3)CC2)OC2(CC2)C1=O.Cl [Example 27, 3-(2-{12-ethyl-13-oxo-4-oxa-8,12-diazadispiro[2.1.5.3]tridecan-8-yl}ethyl)benzonitrile hydrochloride]",++
7,"CN1CC2(CCN(CCc3ccccc3F)CC2)OC2(CC2)C1=O.Cl [Example 29, 8-[2-fluorophenethyl]-12-methyl-4-oxa-8,12-diazadispiro[2.1.5.3]tridecan-13-one hydrochloride]",++
8,"C[C@H]1OC2(CCN(CCc3ccccc3OC(F)(F)F)CC2)CN(C)C1=O.Cl [Example 45, (R)-2,4-dimethyl-9-(2-(trifluoromethoxy)phenethyl)-1-oxa-4,9-diazaspiro[5.5]undecan-3-one hydrochloride]",++
9,"C[C@H]1OC2(CCN(CCc3ccccc3C(F)(F)F)CC2)CN(C)C1=O.Cl [Example 48, (R)-2,4-dimethyl-9-(2-(trifluoromethyl)phenethyl)-1-oxa-4,9-diazaspiro[5.5]undecan-3-one hydrochloride]",++
10,"CC(C)N1CC2(CCN(CCc3c(F)cccc3F)CC2)O[C@H](C)C1=O.Cl [Example 49, (R)-9-(2,6-difluorophenethyl)-4-isopropyl-2-methyl-1-oxa-4,9-diazaspiro[5.5]undecan-3-one hydrochloride]",++
11,"CN1CC2(CCN(CCc3ccccc3)CC2)OC(C)(C)C1=O.Cl [Example 54, 2,2,4-trimethyl-9-phenethyl-1-oxa-4,9-diazaspiro[5.5]undecan-3-one hydrochloride]",++
12,"CCN1CC2(CCN(CCc3cccc(NC(C)=O)c3)CC2)OC2(CC2)C1=O [Example 57, N-[3-(2-{12-ethyl-13-oxo-4-oxa-8,12-diazadispiro[2.1.5.3]tridecan-8-yl}ethyl)phenyl]acetamide]",++
13,"CCN1CC2(CCN(CCc3cccc(NC(N)=O)c3)CC2)OC2(CC2)C1=O [Example 58, [3-(2-{12-ethyl-13-oxo-4-oxa-8,12-diazadispiro[2.1.5.3]tridecan-8-yl}ethyl)phenyl]urea]",++
14,"CCN1CC2(CCN(CCc3ccc(C(=O)NC)cc3)CC2)OC2(CC2)C1=O.Cl [Example 59, 4-(2-{12-ethyl-13-oxo-4-oxa-8,12-diazadispiro[2.1.5.3]tridecan-8-yl}ethyl)-N-methylbenzamide hydrochloride]",++
15,"CCN1CC2(CCN(CCc3ccccc3O)CC2)OC2(CC2)C1=O [Example 60, 12-ethyl-8-(2-hydroxyphenethyl)-4-oxa-8,12-diazadispiro[2.1.5.3]tridecan-13-one]",++
16,"CCN1CC2(CCN(CCc3ccc(O)cc3)CC2)OC2(CC2)C1=O.Cl [Example 62, 12-ethyl-8-(4-hydroxyphenethyl)-4-oxa-8,12-diazadispiro[2.1.5.3]tridecan-13-one hydrochloride]",++
17,"C[C@H]1OC2(CCN(CCc3cccc(F)c3F)CC2)CN(C)C1=O [Example 74, (R)-9-(2,3-difluorophenethyl)-2,4-dimethyl-1-oxa-4,9-diazaspiro[5.5]undecan-3-one]",++
18,"C[C@H]1OC2(CCN(CCc3cc(F)ccc3F)CC2)CN(C)C1=O [Example 81, (R)-9-(2,5-difluorophenethyl)-2,4-dimethyl-1-oxa-4,9-diazaspiro[5.5]undecan-3-one]",++
19,"CC1(C)OC2(CCN(CCc3cccc(F)c3F)CC2)CN(C2CC2)C1=O [Example 85, 4-cyclopropyl-9-(2,3-difluorophenethyl)-2,2-dimethyl-1-oxa-4,9-diazaspiro[5.5]undecan-3-one]",++
20,"CCN1CC2(CCN(CCc3cccc(F)c3F)CC2)O[C@H](C)C1=O [Example 87, (R)-9-(2,3-difluorophenethyl)-4-ethyl-2-methyl-1-oxa-4,9-diazaspiro[5.5]undecan-3-one]",++
21,"CCN1CC2(CCN(CCc3cccc(F)c3F)CC2)OC(C)(C)C1=O [Example 89, 9-(2,3-difluorophenethyl)-4-ethyl-2,2-dimethyl-1-oxa-4,9-diazaspiro[5.5]undecan-3-one]",++
22,"C[C@H]1OC2(CCN(CCc3cccc(F)c3F)CC2)CN(C2CC2)C1=O [Example 91, (R)-4-cyclopropyl-9-(2,3-difluorophenethyl)-2-methyl-1-oxa-4,9-diazaspiro[5.5]undecan-3-one]",++
23,"CN1CC2(CCN(CCc3ccccc3)CC2)O[C@H](CCO)C1=O [Example 94, (R)-2-(2-hydroxyethyl)-4-methyl-9-phenethyl-1-oxa-4,9-diazaspiro[5.5]undecan-3-one]",++
24,"CN1CC2(CCN(CCc3ccccc3)CC2)O[C@H](Cc2ccccc2)C1=O [Example 95, (R)-2-benzyl-4-methyl-9-phenethyl-1-oxa-4,9-diazaspiro[5.5]undecan-3-one]",++

# Same assay, conditions: one combined class from Ki at human σ1 receptor (A1) and Ki at human μ-opioid receptor (A2); read-out: μ and σ1 dual binding
row,Structure (SMILES),pKi
1,"CCN1CC2(CCN(CCc3cccc(N)c3)CC2)OC2(CC2)C1=O [Example 56, 8-(3-aminophenethyl)-12-ethyl-4-oxa-8,12-diazadispiro[2.1.5.3]tridecan-13-one]",< 6.30
